Laboratory results published in patent US20110166206A1, “UBIQUILIN REGULATION OF PRESENILIN ENDOPROTEOLYSIS, AND SUPPRESSION OF POLYGLUTAMINE-INDUCED TOXICITY IN CELLS” (UNIVERSITY OF MARYLAND BIOTECHNOLOGY INSTITUTE, priority 2005, published 2011).

Experiments:
[1] = system: GFP-HttQ74-3 cell line; format: cell-based; details: 100 uM, 5 hours exposure
Source text: FIG. 11. […] The 28Q-2 and 74Q-3 were used in most of our studies. The asterisk corresponds to a non-specific band that is detected by the GFP antibody. • B. Representative fluorescent images of GFP-HttPolyQ(28)-2 and GFP-HttPolyQ(74)-3 stable cell lines. Note that GFP fluorescence is located in both the cytoplasm and the nucleus, but that compact foci are only seen in the GFP-HttPolyQ(74)-3 cells. • C. Cells expressing expanded polyglutamine proteins are more sensitive to H2O2. The GFP-HftPolyQ(28)-2 and GFP-HttPolyQ(74)-3 stable cell lines were exposed to 200 μM concentration of H2O2 and after 5 hr, the cells were stained with both Hoechest 33342 and PI. […] Percentages of cell death calculated by determining the ratio of PI-positively stained cells to that of Hoechst-stained cells. […] Cell death was quantified as described in D above. • H. Representative images showing that ubiquilin-1 overexpression protects GFP-HttPolyQ(74)-3 expressing cells against serum withdrawal-induced cell death, in a dose-dependent manner. […] Bottom panel: Quantification of the spot intensity determined in three independent experiments.
Cell death was monitored either through examination of the nuclear morphology observed after Hoechst 33342 (1 μg/ml) staining, or through detecting the membrane selective permeability following 3 μM of propidium iodide (PI) staining. […]

[2] = system: PS2 NTF; assay: Cycloheximide time course of PS2 fragment production in PS2 inducible cells with or without UBQLN1 transfection; format: cell-based, human; details: PS2 inducible cell lysates, densitometry
Experimental: (A) Time course experiment using ponA-induced PS2 cell line cultures transfected with or without UBQLN1 expression plasmids were treated with […] cycloheximide for 0-6 hours. Equal amounts of protein lysate were separated by 8.5% SDS-PAGE and subsequently immunoblotted with anti-UBQLN antibody. Transfected cells reveal a 4-fold increase in UBQLN1 levels. Next, the protein lysates were immunoblotted using anti-PS2 NH,-terminal antibody to detect FL and NTF PS2 levels, as indicated. Note both FL PS2 turnover and NTF production levels in transfected versus untransfected cell lysates.
(B) Same experiment as (A) except FL PS expression was not induced using PonA.
(C) Graphs showing relative levels of PS2 polypeptides in PS2 inducible cell lysates after densitometric analysis of the immunoreactive bands shown in panels A and B. The levels were calculated by normalization of the signals relative to that in Lane 1. The Microsoft Excel program was used to produce a best-fit line for each graph. […] However, this is completely opposite of NTF levels. UBQLN not only decreases NTF levels at every time-point in the experiment, but it also slows the rate of NTF production, as determined by measuring the slope of each line.
HeLa and HEK293 cells were grown in DMEM supplemented with 10% FBS. PS1 and S2 inducible cell lines were generated by transfection of the pERV-expressing HEK293 cell line (Stratgene, IaIolla, Calif.) with FL human PS2 cDNA under the control of ponasteroneA (PonA)-inducible cassette in plasmid pEGSH (Stratagene). Stable integration of the pEGSH plasmid was achieved by selection for hygromycin resistance. PS expression was induced by adding PonA (final cont. 10 pM) to the medium. For proteasome inhibition studies, cultures were treated with 40 uM MG132 (Calbiochem, San Diego, Calif.) for time periods as indicated. […]
To this end, protein synthesis was inhibited using cyclohexamide (CHX) and PS fragment production was monitored over a six-hour time period in UBQLN transfected and untransfected lysates that were either induced or uninduced for PS expression. […]

[3] = system: Nicastrin; assay: UBQLN overexpression in PS inducible cells, Nicastrin immunoblot; format: cell-based; details: UBQLN overexpressed
Source text: (§1) (A) Examination of Nicastrin, Aph-1 and Pen-2 levels in PS1 cells lines that were either not induced (lanes 1 and 3) or induced with PonA (lanes 2 and 4) and either left untransfected (lanes 1 and 2) or transfected with UBQLN1 cDNA (lanes 3 and 4). Equivalent amounts of protein lysates were separated by 10% SDS-PAGE and immunoblotted with the appropriate antibodies. The filter was then reprobed an anti-actin to ensure equal loading. UBQLN overexpression decreases Pen-2 and Nicastrin levels.
(§2) Preparation of protein lysates, SDS-PAGE and immunoblotting of proteins were described previously. Primary antibodies used were rabbit anti-PS2 loop and rabbit anti-PS2 NH,-terminus, both raised to GST-PS2 fusion proteins; rabbit anti-ubiquilin [43] which reacts with UBQLN1 and UBQLN2 polypeptides; rat anti-PS1 NH2,-terminus (Chemicon International, Temecula, Calif.); rabbit anti-PS1 loop raised to GST-PS1 fusion proteins; goat anti-p27 and goat anti-actin (Santa Cruz Biotechnology, Santa Cruz, Calif.); mouse monoclonal anti-tubulin (Sigma-Aldrich, St. Louis, Mo.); rabbit anti-nicastrin (Abeam, Cambridge, Mass.), rabbit anti-Pen-2 (Zymed, San Francisco, Calif.); and rabbit anti-Aph-la (Covance, Berkeley, Calif.). […]

[4] = system: PS2 NTF; assay: Pulse-chase of PS2 NTF turnover with or without UBQLN overexpression; format: cell-based; details: 35 hour chase, with vs without UBQLN overexpression
[5] = system: Pen-2; assay: UBQLN overexpression in PS inducible cells, Pen-2 immunoblot; format: cell-based; details: induced lysates
Source text: as §1
(C) Densitometric analysis was used to quantify the extent of reduction. Each experiment was repeated more than three times.
as §2

[6] = system: Aph-1; assay: UBQLN overexpression in PS inducible cells, Aph-1 immunoblot; format: cell-based; details: UBQLN overexpressed
Source text: as §1, §2

Question: How did the cell death [1] turn out when `OO` [H2O2] was run?
Answer: approximately 30%

Question: How did the “FL PS2 levels” value [2] turn out when “UBQLN: ubiquilin protein overexpressed from cDNA plasmids, isoform not specified at the place” was run?
Answer: increases FL PS2 levels dramatically

Question: What about the “levels of mature Nicastrin” value [3] of the same compound?
Answer: decreased

Question: And the “turnover of PS2 NTF” value [4]?
Answer: no significant difference

Question: What about the “reduction of Pen-2 levels” value [5] of the same compound?
Answer: 2 fold

Question: And the Aph-1 levels [6]?
Answer: remain steady
